Results: patent US20060069132A1, “Azolecarboxamide herbicides” (priority 2004, published 2006)

Experiments:
yellow nutsedge = assay: Test C pre-/postemergence herbicide test; type: in vivo, Cyperus esculentus
Method in brief: (§1)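 Emerged plants at the 1- to 4-leaf stage (2–18 cm), or freshly planted seeds, received test chemicals in a non-phytotoxic solvent mixture with surfactant. Response was visually scored against controls after 12 to 14 days in the greenhouse, on a 0 (no effect) to 100 (complete control) scale.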

pigweed = assay: Test C pre-/postemergence herbicide test; type: in vivo, Amaranthus retroflexus
Method in brief: as §1

chickweed = assay: Test C postemergence herbicide test; type: in vivo, Stellaria media; details: for Chickweed plant response rating: 500 g ai/ha
Description: At the same time, plants selected from these crop and weed species and also winter barley (Hordeum vulgare L.), blackgrass (Alopecurus myosuroides Huds.), canarygrass (Phalaris minor Retz.), chickweed (Stellaria media (L.) Vill.), downy bromegrass (Bromus tectorum L.), green foxtail (Setaria viridis (L.) Beauv.), Italian ryegrass (Lolium multiflorum Lam.), wheat (Triticum aestivum L.), wild oat (Avenafatua L.) and windgrass (Apera spica-venti (L.) Beauv.) were treated with postemergence applications of some of the test chemicals formulated in the same manner. Plants ranged in height from 2 to 18 cm (1- to 4-leaf stage) for postemergence treatments. Plant species in the flooded paddy test consisted of rice (Oryza sativa), smallflower umbrella sedge (Cyperus difformis L.), ducksalad (Heteranthera limosa (Sw.) Willd.) and barnyardgrass (Echinochloa crus-galli (L.) Beauv.) grown to the 2-leaf stage for testing. Treated plants and controls were maintained in a greenhouse for 12 to 14 days, after which time all species were compared to controls and visually evaluated. Plant response ratings, summarized in Table C, are based on a scale of 0 to 100 where 0 is no effect and 100 is complete control. A dash (-) response means no test result.

eastern black nightshade = assay: Test C pre-/postemergence herbicide test; type: in vivo, Solanum ptycanthum; details: preemergence
Method in brief: as §1

winter barley = assay: Test C postemergence herbicide test; type: in vivo, Hordeum vulgare
Method in brief: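 Visual rating, 0 (no effect) to 100 (complete control), vs. controls at 12–14 d in greenhouse. Postemergence: 1–4-leaf plants, 2–18 cm. Paddy: flooded, barnyardgrass at 2-leaf stage.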

blackgrass = assay: Test C postemergence herbicide test; type: in vivo, Alopecurus myosuroides; details: for Blackgrass plant response rating: 500 g ai/ha
Method in brief: (§2)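 Weeds and wheat were sprayed after emergence, at a height of 2 to 18 cm (1–4 leaves), and paddy barnyardgrass was flooded and treated at two leaves. Assessment took place 12–14 days later in the greenhouse on a 0-to-100 visual control scale. A dash means no result was obtained.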

canarygrass = assay: Test C postemergence herbicide test; type: in vivo, Phalaris minor
Method in brief: as §2

downy bromegrass = assay: Test C postemergence herbicide test; type: in vivo, Bromus tectorum
Method in brief: as §2

green foxtail = assay: Test C postemergence herbicide test; type: in vivo, Setaria viridis
Method in brief: as §2

Italian ryegrass = assay: Test C postemergence herbicide test; type: in vivo, Lolium multiflorum
Method in brief: as §2

wheat = assay: Test C postemergence herbicide test; type: in vivo, Triticum aestivum
Method in brief: as §2

wild oat = assay: Test C postemergence herbicide test; type: in vivo, Avenafatua
Method in brief: as §2

windgrass = assay: Test C postemergence herbicide test; type: in vivo, Apera spica-venti
Method in brief: as §2

[1] = Postemergence, 500 g ai/ha, scale 0 to 100
[2] = Postemergence, 250 g ai/ha, scale 0 to 100, 0 no effect, 100 complete control
[3] = postemergence, 125 g ai/ha, scale 0 to 100
[4] = postemergence, 62 g ai/ha, scale 0 to 100
[5] = 500 g ai/ha, scale 0 to 100 (0 no effect, 100 complete control), visual, 12 to 14 days
[6] = 62 g ai/ha, preemergence, scale 0 to 100
[7] = 500 g ai/ha, scale 0 to 100 (0 no effect, 100 complete control), visual, 12 to 14 days, preemergence
[8] = postemergence, 125 g ai/ha, scale 0 to 100 (0 no effect, 100 complete control)
[9] = postemergence, 62 g ai/ha, scale 0 to 100 (0 no effect, 100 complete control)
[10] = Postemergence, 500 g ai/ha, scale 0 to 100, 0 no effect, 100 complete control
[11] = 125 g ai/ha, scale 0 (no effect) to 100 (complete control), visual, 12 to 14 days, preemergence
[12] = 250 g ai/ha, scale 0-100, preemergence

## CC(=NO)c1cccc(NC(=O)c2cc(C(C)(C)C)nn2CC(F)(F)F)c1 [Compound 112]
Yellow nutsedge; [1]
  Nutsedge, Yellow plant response rating: 20
Yellow nutsedge; [2]
  Plant response rating, Nutsedge, Yellow: 20
Yellow nutsedge; [3]
  Plant response rating, Nutsedge, Yellow: 0
Yellow nutsedge; [4]
  Plant response rating, Nutsedge, Yellow: 0
pigweed; [1]
  Pigweed plant response rating: 100
pigweed; [2]
  Plant response rating, Pigweed: 100
pigweed; [3]
  Plant response rating, Pigweed: 60
pigweed; [4]
  Plant response rating, Pigweed: 10
chickweed; Postemergence, scale 0 to 100
  Chickweed plant response rating: 100
chickweed; [2]
  Plant response rating, Chickweed: 100
chickweed; [3]
  Plant response rating, Chickweed: 10
chickweed; [4]
  Plant response rating, Chickweed: 0

## C#CCOC(=O)c1cccc(NC(=O)c2cc(C(C)(C)C)nn2CC)c1 [Compound 84]
Yellow nutsedge; [1]
  Nutsedge, Yellow plant response rating: 0
Yellow nutsedge; [2]
  Plant response rating, Nutsedge, Yellow: 0
Yellow nutsedge; [3]
  Plant response rating, Nutsedge, Yellow: 0
Yellow nutsedge; [4]
  Plant response rating, Nutsedge, Yellow: 0
pigweed; [1]
  Pigweed plant response rating: 100
pigweed; [2]
  Plant response rating, Pigweed: 100
pigweed; [3]
  Plant response rating, Pigweed: 100
pigweed; [4]
  Plant response rating, Pigweed: 100
chickweed; Postemergence, scale 0 to 100
  Chickweed plant response rating: 70
chickweed; [2]
  Plant response rating, Chickweed: 70
chickweed; [3]
  Plant response rating, Chickweed: 50
chickweed; [4]
  Plant response rating, Chickweed: 0

## CCn1nc(C(C)(C)C)cc1C(=O)Nc1cccc(C(=O)OC)c1 [Compound 81]
Yellow nutsedge; [2]
  Plant response rating, Nutsedge, Yellow: 0
Yellow nutsedge; [3]
  Plant response rating, Nutsedge, Yellow: 0
Yellow nutsedge; [4]
  Plant response rating, Nutsedge, Yellow: 0
pigweed; [2]
  Plant response rating, Pigweed: 40
pigweed; [3]
  Plant response rating, Pigweed: 10
pigweed; [4]
  Plant response rating, Pigweed: 5
chickweed; [2]
  Plant response rating, Chickweed: 100
chickweed; [3]
  Plant response rating, Chickweed: 95
chickweed; postemergence, 31 g ai/ha, scale 0 to 100
  Plant response rating, Chickweed: 90
chickweed; [4]
  Plant response rating, Chickweed: 95

## CCc1nn(C(C)(C)C)nc1C(=O)Nc1cccc(C(=O)NC2CC2)c1 [Compound 417]
Eastern black nightshade; 62 g ai/ha, scale 0 to 100
  Plant response rating, Nightshade: 55
Eastern black nightshade; 125 g ai/ha
  Plant response rating (0 = no effect, 100 = complete control), Nightshade: 60
Eastern black nightshade; [5]
  Plant response rating, Nightshade: 95
Yellow nutsedge; [6]
  Plant response rating, Nutsedge, Yellow: 0
Yellow nutsedge; 125 g ai/ha, preemergence
  Plant response rating (0 = no effect, 100 = complete control), Nutsedge, Yellow: 0
Yellow nutsedge; [7]
  Plant response rating, Nutsedge, Yellow: 0
pigweed; [6]
  Plant response rating, Pigweed: 100
pigweed; 125 g ai/ha, preemergence
  Plant response rating (0 = no effect, 100 = complete control), Pigweed: 100
pigweed; [7]
  Plant response rating, Pigweed: 100
Winter barley; [1]
  Barley, Winter plant response rating: 35
Winter barley; [2]
  Plant response rating, Barley, Winter: 30
Winter barley; [8]
  Plant response rating, Barley, Winter: 20
Winter barley; [9]
  Plant response rating, Barley, Winter: 20
blackgrass; Postemergence, scale 0 to 100
  Blackgrass plant response rating: 60
blackgrass; [2]
  Plant response rating, Blackgrass: 60
blackgrass; [3]
  Plant response rating, Blackgrass: 50
blackgrass; [4]
  Plant response rating, Blackgrass: 35
canarygrass; [2]
  Plant response rating, Canarygrass: 45
canarygrass; [10]
  Plant response rating, Canarygrass: 55
canarygrass; [3]
  Plant response rating, Canarygrass: 40
canarygrass; [4]
  Plant response rating, Canarygrass: 30
Downy bromegrass; [2]
  Plant response rating, Bromegrass, Downy: 50
Downy bromegrass; [10]
  Plant response rating, Bromegrass, Downy: 65
Downy bromegrass; [3]
  Plant response rating, Bromegrass, Downy: 40
Downy bromegrass; [4]
  Plant response rating, Bromegrass, Downy: 35
Green foxtail; [2]
  Plant response rating, Foxtail, Green: 60
Green foxtail; [10]
  Plant response rating, Foxtail, Green: 65
Green foxtail; [3]
  Plant response rating, Foxtail, Green: 55
Green foxtail; [4]
  Plant response rating, Foxtail, Green: 50
Italian ryegrass; [10]
  Plant response rating, Ryegrass, Italian: 60
Italian ryegrass; [3]
  Plant response rating, Ryegrass, Italian: 40
Italian ryegrass; [4]
  Plant response rating, Ryegrass, Italian: 35
wheat; [10]
  Plant response rating, Wheat: 35
wheat; [3]
  Plant response rating, Wheat: 20
wheat; [4]
  Plant response rating, Wheat: 20
Wild oat; [10]
  Plant response rating, Oat, Wild: 60
Wild oat; [3]
  Plant response rating, Oat, Wild: 40
Wild oat; [4]
  Plant response rating, Oat, Wild: 35
windgrass; [10]
  Plant response rating, Windgrass: 55
windgrass; [3]
  Plant response rating, Windgrass: 40
windgrass; [4]
  Plant response rating, Windgrass: 40

## CCn1nc(C(C)(C)C)cc1C(=O)Nc1cccc(OC(F)(F)C(F)F)c1 [Compound 333]
Eastern black nightshade; 125 g ai/ha, scale 0 (no effect) to 100 (complete control), visual, 12 to 14 days
  Plant response rating, Nightshade: 20
Eastern black nightshade; 250 g ai/ha, scale 0-100
  Plant response rating, Nightshade: 98
Eastern black nightshade; [5]
  Plant response rating, Nightshade: 100
Yellow nutsedge; [6]
  Plant response rating, Nutsedge, Yellow: 0
Yellow nutsedge; [11]
  Plant response rating, Nutsedge, Yellow: 0
Yellow nutsedge; [12]
  Plant response rating, Nutsedge, Yellow: 0
Yellow nutsedge; [7]
  Plant response rating, Nutsedge, Yellow: 0
Yellow nutsedge; [1]
  Nutsedge, Yellow plant response rating: 0
Yellow nutsedge; [2]
  Plant response rating, Nutsedge, Yellow: 0
Yellow nutsedge; [3]
  Plant response rating, Nutsedge, Yellow: 0
Yellow nutsedge; [4]
  Plant response rating, Nutsedge, Yellow: 0
pigweed; [6]
  Plant response rating, Pigweed: 100
pigweed; [11]
  Plant response rating, Pigweed: 100
pigweed; [12]
  Plant response rating, Pigweed: 100
pigweed; [7]
  Plant response rating, Pigweed: 100
pigweed; [1]
  Pigweed plant response rating: 100
pigweed; [2]
  Plant response rating, Pigweed: 100
pigweed; [3]
  Plant response rating, Pigweed: 100
pigweed; [4]
  Plant response rating, Pigweed: 65
Winter barley; [2]
  Plant response rating, Barley, Winter: 55
Winter barley; [8]
  Plant response rating, Barley, Winter: 45
Winter barley; [9]
  Plant response rating, Barley, Winter: 40
blackgrass; Postemergence, scale 0 to 100
  Blackgrass plant response rating: 55
blackgrass; [2]
  Plant response rating, Blackgrass: 50
blackgrass; [3]
  Plant response rating, Blackgrass: 40
blackgrass; [4]
  Plant response rating, Blackgrass: 30
canarygrass; [1]
  Canarygrass plant response rating: 45
canarygrass; [2]
  Plant response rating, Canarygrass: 40
canarygrass; [3]
  Plant response rating, Canarygrass: 35
canarygrass; [4]
  Plant response rating, Canarygrass: 35
Downy bromegrass; [1]
  Bromegrass, Downy plant response rating: 45
Downy bromegrass; [2]
  Plant response rating, Bromegrass, Downy: 45
Downy bromegrass; [4]
  Plant response rating, Bromegrass, Downy: 40
Green foxtail; [1]
  Foxtail, Green plant response rating: 65
Green foxtail; [2]
  Plant response rating, Foxtail, Green: 50
Green foxtail; [3]
  Plant response rating, Foxtail, Green: 40
Green foxtail; [4]
  Plant response rating, Foxtail, Green: 30
Italian ryegrass; [1]
  Ryegrass, Italian plant response rating: 55
Italian ryegrass; [2]
  Plant response rating, Ryegrass, Italian: 50
Italian ryegrass; [3]
  Plant response rating, Ryegrass, Italian: 35
Italian ryegrass; [4]
  Plant response rating, Ryegrass, Italian: 35
wheat; [1]
  Wheat plant response rating: 55
wheat; [2]
  Plant response rating, Wheat: 50
wheat; [3]
  Plant response rating, Wheat: 50
wheat; [4]
  Plant response rating, Wheat: 40
Wild oat; [1]
  Oat, Wild plant response rating: 55
Wild oat; [2]
  Plant response rating, Oat, Wild: 60
Wild oat; [3]
  Plant response rating, Oat, Wild: 60
Wild oat; [4]
  Plant response rating, Oat, Wild: 50
windgrass; [1]
  Windgrass plant response rating: 80
windgrass; [2]
  Plant response rating, Windgrass: 50
windgrass; [3]
  Plant response rating, Windgrass: 25
windgrass; [4]
  Plant response rating, Windgrass: 20
